This is an account of results in PubChem BioAssay (NCI).

Some test systems named below: SN12C renal; SK-MEL-28 melanoma; SNB-75 CNS; NCI/ADR-RES ovarian; HCC-2998 colon; CAKI-1 renal; PC-3 prostate; HT29 colon; MCF7 breast; EKVX NSCLC; SF-295 CNS; UO-31 renal.
Common to all, as to assay: NCI anticancer screen, dose series, 48 h

Each structure is given as a SMILES string.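 Five compound concentrations were applied to cells in 96-well plates for 48 hours; endpoints were derived by simple linear interpolation of the resulting dose-response curve. TGI: total growth inhibition.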

As to `C/C(=N/NC(=O)c1ccncc1)c1ccc(NC(=O)C(=O)Nn2c(=S)[nH]c3ccccc3c2=O)cc1`, the TGI with SN12C renal, in the assay on SK-MEL-28 melanoma, in the assay with SNB-75 CNS, with NCI/ADR-RES ovarian, in the assay on HCC-2998 colon and with CAKI-1 renal was more than 100 µM in each case. Further, the TGI with PC-3 prostate, in the assay on HT29 colon, with MCF7 breast, in the assay on EKVX NSCLC, with SF-295 CNS and with UO-31 renal was more than 100 µM in each case.
With `COc1ccc(/C(CCl)=C(\Nc2ccccc2)c2ccc(OC)c(OC)c2)cc1OC`, the TGI in the assay with SN12C renal, in the assay with SK-MEL-28 melanoma, in the assay with SNB-75 CNS, with NCI/ADR-RES ovarian, with HCC-2998 colon and with CAKI-1 renal was more than 100 µM each time. Besides, the TGI in the assay on PC-3 prostate, with HT29 colon, in the assay with MCF7 breast, with EKVX NSCLC, with SF-295 CNS and in the assay on UO-31 renal was more than 100 µM in each case.
For `Nc1ccc(-c2ncc3cc(-c4cccc(-c5cc6cnc(-c7ccc(N)cc7)nc6c6ccccc56)c4)c4ccccc4c3n2)cc1`, the TGI in the assay on SN12C renal, in the assay with SK-MEL-28 melanoma, in the assay on SNB-75 CNS, in the assay with NCI/ADR-RES ovarian, in the assay on HCC-2998 colon and in the assay with CAKI-1 renal was more than 100 µM each time. Further, the TGI with PC-3 prostate, in the assay with HT29 colon, in the assay with MCF7 breast, in the assay on EKVX NSCLC, in the assay with SF-295 CNS and with UO-31 renal was more than 100 µM each time.
Turning to `COC(=O)c1ccccc1/C=C1/Cc2cccc(C)c2C1=O`, the TGI with SN12C renal, with SK-MEL-28 melanoma, with SNB-75 CNS, in the assay with NCI/ADR-RES ovarian, in the assay on HCC-2998 colon and in the assay on CAKI-1 renal was more than 100 µM in each case. Also, the TGI with PC-3 prostate, with HT29 colon, with MCF7 breast, with EKVX NSCLC, in the assay with SF-295 CNS and in the assay with UO-31 renal was more than 100 µM each time.
As to `C[n+]1noc(/N=N\[O-])c1-c1cc(-c2c(/N=N\[O-])on[n+]2C)cc(-c2c(/N=N/[O-])on[n+]2C)c1`, the TGI in the assay with SN12C renal, with SK-MEL-28 melanoma, in the assay on SNB-75 CNS, in the assay on NCI/ADR-RES ovarian, in the assay with HCC-2998 colon and with CAKI-1 renal was more than 100 µM each time. Moreover, the TGI in the assay with PC-3 prostate, in the assay with HT29 colon, in the assay with MCF7 breast, in the assay on EKVX NSCLC, in the assay with SF-295 CNS and in the assay on UO-31 renal was more than 100 µM each time.
Regarding `c1cc(-c2csc(-c3ccsc3)c2)cs1`, the TGI in the assay on SN12C renal, in the assay with SK-MEL-28 melanoma, in the assay with SNB-75 CNS, in the assay on NCI/ADR-RES ovarian, in the assay on HCC-2998 colon and in the assay with CAKI-1 renal was more than 100 µM in each case. Further, the TGI in the assay on PC-3 prostate was more than 100 µM; in the assay with HT29 colon, more than 100 µM; in the assay with MCF7 breast, 48.6 µM; in the assay with EKVX NSCLC it was more than 100 µM; in the assay on SF-295 CNS it was more than 100 µM; with UO-31 renal it was more than 100 µM.
Take `Oc1[nH]c2ccccc2c1N=NC(=S)N1CCCCC1`: the TGI came out at 15.1 µM with SN12C renal; 12.2 µM in the assay with SK-MEL-28 melanoma; 6.71 µM in the assay with SNB-75 CNS; 0.635 µM in the assay with NCI/ADR-RES ovarian; 8.87 µM in the assay with HCC-2998 colon; 4.43 µM with CAKI-1 renal. The TGI stood at 10.3 µM in the assay with PC-3 prostate; 10.8 µM in the assay with HT29 colon; 6.26 µM in the assay on MCF7 breast; 9.75 µM with EKVX NSCLC; 3.36 µM in the assay with SF-295 CNS; 3.23 µM with UO-31 renal.
For the compound `COc1cc(O)c2c(=O)c(OC)c(-c3ccc4c(c3)OCO4)oc2c1`, the TGI with SN12C renal was more than 100 µM; with SK-MEL-28 melanoma, more than 100 µM; in the assay with SNB-75 CNS, 14.9 µM; in the assay with NCI/ADR-RES ovarian, more than 100 µM; in the assay on HCC-2998 colon, more than 100 µM; with CAKI-1 renal, more than 100 µM. In addition, the TGI with PC-3 prostate is more than 100 µM; in the assay with HT29 colon it was more than 100 µM; in the assay on MCF7 breast, more than 100 µM; in the assay on EKVX NSCLC, more than 100 µM; in the assay with SF-295 CNS, more than 92.2 µM; in the assay with UO-31 renal, more than 100 µM.
As to `Cc1cccc(-n2c(C)nc3ccc(NC4OC(CO)C(O)C(O)C4O)cc3c2=O)c1` (stereo not drawn), the TGI in the assay on SN12C renal, with SK-MEL-28 melanoma, with SNB-75 CNS, with NCI/ADR-RES ovarian, in the assay with HCC-2998 colon and in the assay with CAKI-1 renal was more than 100 µM throughout. Further, the TGI in the assay on PC-3 prostate, in the assay with HT29 colon, with MCF7 breast, in the assay on EKVX NSCLC, with SF-295 CNS and in the assay on UO-31 renal was more than 100 µM each time.
